Among the test systems are A498; CCRF-CEM; DU-145; Hs-578T; K562; KM12; M14; MCF7; MDA-N; MOLT-4; PC-3; RPMI-8226; RXF 393; SF-268; SK-MEL-2; SK-MEL-5; SK-OV-3; SW-620; TK-10.
Holding throughout (assay): growth of human tumour cells (NCI), 48 h

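Compound exposure: 48 hours, 5 concentrations, 96-well plates. The concentration for 50% growth inhibition is given as GI50.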 Active and inactive are the calls of the source. Cut-off read from the data, not from the text of the source: active = GI50 up to about 1.1 µM and inactive = higher.

`c1ccc(CNCCCNCCCCNCCCNCc2ccccc2)cc1`: the GI50 in the assay on A498 is > 10 µM (inactive); with CCRF-CEM it was 1.86 µM (inactive); in the assay with DU-145, 12.8 µM (inactive); with Hs-578T it was 1.91 µM (inactive); in the assay with K562, 1.67 µM (inactive); in the assay with KM12 it was 5.52 µM (inactive). The GI50 is 5.46 µM (inactive) with M14; 3.21 µM (inactive) in the assay on MCF7; 1.83 µM (inactive) in the assay with MDA-N; 0.834 µM (active) in the assay with MOLT-4; 4.88 µM (inactive) with PC-3; 2.22 µM (inactive) in the assay on RPMI-8226. In addition, the GI50 in the assay on RXF 393 is 12.4 µM (inactive); in the assay on SF-268 it was 12.2 µM (inactive); in the assay on SK-MEL-2 it was 14.7 µM (inactive); in the assay with SK-MEL-5 it was 7.85 µM (inactive); with SK-OV-3, 15.7 µM (inactive); in the assay on SW-620, 1.8 µM (inactive). The GI50 in the assay with TK-10 was 5.69 µM (inactive).
On to `CCSCC(N)C(=O)O` (centres undefined), for which the GI50 in the assay on A498, with CCRF-CEM, in the assay with DU-145, with Hs-578T, in the assay with KM12 and in the assay with M14 was > 100 µM (inactive) in each case. Further, the GI50 in the assay with MCF7, in the assay on MDA-N, with PC-3, in the assay on RPMI-8226, in the assay with RXF 393 and in the assay with SF-268 was > 100 µM (inactive) in each case. In addition, the GI50 in the assay on SK-MEL-2, in the assay with SK-MEL-5, in the assay with SK-OV-3, in the assay on SW-620 and in the assay on TK-10 was > 100 µM (inactive) throughout.
As to `O=C(O)C1C(C(=O)O)C(C(=O)O)C1C(=O)O` (centres undefined), the GI50 in the assay on A498, with CCRF-CEM, in the assay on DU-145, with Hs-578T, in the assay on K562 and in the assay with KM12 was > 100 µM (inactive) each time. Besides, the GI50 in the assay on M14, in the assay with MCF7, in the assay with MDA-N, in the assay on MOLT-4, in the assay on PC-3 and with RPMI-8226 was > 100 µM (inactive) each time. For the same molecule, the GI50 in the assay with RXF 393, in the assay on SF-268, in the assay with SK-MEL-2, with SK-MEL-5, in the assay with SK-OV-3 and with SW-620 was > 100 µM (inactive) each time. The GI50 with TK-10 is > 100 µM (inactive).
Turning to `CSc1nc(C)cc(Nc2ccc(O)c(CN3CCOCC3)c2)n1`, the GI50 in the assay with A498, in the assay on CCRF-CEM, in the assay with DU-145, with Hs-578T, with K562 and with KM12 was > 100 µM (inactive) each time. In addition, the GI50 with M14 was > 100 µM (inactive); in the assay on MCF7, > 100 µM (inactive); in the assay with MDA-N it was > 100 µM (inactive); with MOLT-4 it was 53.6 µM (inactive); with PC-3, > 100 µM (inactive); in the assay on RPMI-8226, > 100 µM (inactive). In addition, the GI50 in the assay with RXF 393 was > 100 µM (inactive); with SF-268 it was > 100 µM (inactive); in the assay with SK-MEL-2 it was > 100 µM (inactive); with SK-MEL-5 it was 65 µM (inactive); in the assay with SK-OV-3, > 100 µM (inactive); in the assay on SW-620 it was > 100 µM (inactive). Moreover, the GI50 in the assay with TK-10 is > 100 µM (inactive).
`Cc1nc(-c2ccc(/N=C/c3ccc(N(CCOS(C)(=O)=O)CCOS(C)(=O)=O)cc3C)cc2)cs1`: the GI50 is 2.31 µM (inactive) with A498; 3.65 µM (inactive) in the assay with CCRF-CEM; 11.5 µM (inactive) in the assay with DU-145; 88.3 µM (inactive) in the assay with Hs-578T; 26.5 µM (inactive) in the assay with K562; 32.1 µM (inactive) in the assay on KM12. Also, the GI50 in the assay with M14 is 60 µM (inactive); in the assay with MCF7 it was 2.44 µM (inactive); in the assay with MDA-N, 46 µM (inactive); in the assay with MOLT-4, 2.09 µM (inactive); with PC-3, 20.9 µM (inactive); with RPMI-8226, 17.8 µM (inactive). The GI50 is 25.1 µM (inactive) in the assay on RXF 393; 5.14 µM (inactive) with SF-268; > 100 µM (inactive) in the assay on SK-MEL-2; 11.4 µM (inactive) with SK-MEL-5; 26.5 µM (inactive) with SK-OV-3; 67.9 µM (inactive) in the assay with SW-620. For the same molecule, the GI50 in the assay on TK-10 was 55.5 µM (inactive).
With `Cc1cccc2c1C(=O)[C@@](C)([C@]1(C)Nc3cccc(C)c3C1=O)N2`, the GI50 in the assay with A498 was > 100 µM (inactive); with CCRF-CEM, 49.4 µM (inactive); in the assay with DU-145 it was > 100 µM (inactive); with Hs-578T, > 100 µM (inactive); in the assay with K562, > 100 µM (inactive); in the assay on KM12, > 100 µM (inactive). Besides, the GI50 was > 100 µM (inactive) with M14; > 100 µM (inactive) in the assay with MCF7; 98.4 µM (inactive) in the assay with MDA-N; > 100 µM (inactive) with MOLT-4; 38.7 µM (inactive) in the assay with PC-3; 11 µM (inactive) in the assay with RPMI-8226. In addition, the GI50 in the assay on RXF 393 is > 100 µM (inactive); in the assay with SF-268, > 100 µM (inactive); with SK-MEL-2, > 100 µM (inactive); with SK-MEL-5, 96.6 µM (inactive); with SK-OV-3, > 100 µM (inactive); with SW-620 it was > 100 µM (inactive).
For the molecule `CCC/C(Cl)=N\OC(=O)Nc1cccc(C(F)(F)F)c1`, the GI50 was 17.8 µM (inactive) in the assay with A498; 2.43 µM (inactive) in the assay on CCRF-CEM; 13.2 µM (inactive) with DU-145; 29.7 µM (inactive) in the assay on Hs-578T; 2.28 µM (inactive) in the assay on K562; 17.6 µM (inactive) in the assay on KM12. For the same molecule, the GI50 in the assay with M14 was 17.7 µM (inactive); in the assay with MCF7, 14 µM (inactive); in the assay on MDA-N it was 17.6 µM (inactive); in the assay with MOLT-4 it was 2.94 µM (inactive); with PC-3, 17.6 µM (inactive); in the assay on RPMI-8226, 4.61 µM (inactive). Further, the GI50 with RXF 393 was 19.6 µM (inactive); with SF-268, 27.3 µM (inactive); with SK-MEL-2 it was 16.7 µM (inactive); in the assay with SK-MEL-5, 15.5 µM (inactive); in the assay with SK-OV-3, 13.6 µM (inactive); with SW-620 it was 2.81 µM (inactive). Further, the GI50 in the assay on TK-10 is 15.4 µM (inactive).
Turning to `Cc1ccc(Nc2nc3[nH]ccc3c(=O)[nH]2)cc1`, the GI50 in the assay with A498 was 18.1 µM (inactive); with CCRF-CEM it was > 100 µM (inactive); in the assay on DU-145, 53.6 µM (inactive); with Hs-578T, 35.8 µM (inactive); with K562, > 100 µM (inactive); in the assay with KM12, > 100 µM (inactive). The GI50 is > 100 µM (inactive) with M14; > 100 µM (inactive) in the assay on MCF7; > 100 µM (inactive) in the assay with MDA-N; 39.7 µM (inactive) in the assay with MOLT-4; 37.8 µM (inactive) in the assay on PC-3; > 100 µM (inactive) in the assay on RPMI-8226. Besides, the GI50 in the assay on RXF 393 was 14.5 µM (inactive); with SF-268, 65.3 µM (inactive); in the assay with SK-MEL-2, > 100 µM (inactive); in the assay on SK-MEL-5, > 100 µM (inactive); with SK-OV-3, > 100 µM (inactive); in the assay with SW-620, > 100 µM (inactive). The GI50 with TK-10 was 95.7 µM (inactive).
As for `CN(C)CCNC(=O)C(C)(C)Oc1ccc(C(=O)c2ccc(Cl)cc2)cc1Cl`, the GI50 with A498 is 16.1 µM (inactive); in the assay on CCRF-CEM, 33.4 µM (inactive); in the assay on DU-145 it was 13.2 µM (inactive); in the assay on Hs-578T, 6.14 µM (inactive); in the assay with KM12 it was 8.93 µM (inactive); in the assay with M14 it was 2.45 µM (inactive). For the same molecule, the GI50 with MCF7 was 8.34 µM (inactive); with MDA-N it was 4.45 µM (inactive); in the assay on MOLT-4 it was 12 µM (inactive); with PC-3, 11.5 µM (inactive); with RPMI-8226 it was 3.94 µM (inactive); with RXF 393, 7.52 µM (inactive). For the same molecule, the GI50 with SF-268 is 13.7 µM (inactive); in the assay on SK-MEL-2, 18 µM (inactive); in the assay on SK-MEL-5, 2.25 µM (inactive); in the assay with SK-OV-3, 15.9 µM (inactive); in the assay on SW-620, 5.26 µM (inactive); in the assay on TK-10 it was 11.4 µM (inactive).
As for `COC(OC)C1OCC(n2cc(F)c(=O)[nH]c2=O)C1O` (centres undefined), the GI50 in the assay on A498, in the assay on CCRF-CEM, in the assay on DU-145, in the assay on Hs-578T, in the assay with K562 and in the assay on KM12 was > 100 µM (inactive) in each case. Moreover, the GI50 in the assay on M14, in the assay on MCF7, with MDA-N, with MOLT-4, with PC-3 and with RPMI-8226 was > 100 µM (inactive) each time. Further, the GI50 in the assay with RXF 393 is 42.9 µM (inactive); in the assay on SF-268, > 100 µM (inactive); in the assay with SK-MEL-2 it was > 100 µM (inactive); with SK-MEL-5, > 100 µM (inactive); in the assay on SK-OV-3 it was > 100 µM (inactive); in the assay with SW-620, > 100 µM (inactive). The GI50 in the assay on TK-10 was > 100 µM (inactive).
Turning to `OC(c1ccc(Cl)cc1)(c1ccc(Cl)cc1)c1cncnc1`, the GI50 in the assay on A498 was 21.2 µM (inactive); with CCRF-CEM, 15.3 µM (inactive); in the assay with DU-145, 24.6 µM (inactive); with Hs-578T, 25.3 µM (inactive); with K562, 4.5 µM (inactive); in the assay with KM12, 17.6 µM (inactive). For the same molecule, the GI50 is 16.7 µM (inactive) in the assay on M14; 25.9 µM (inactive) with MCF7; 19.2 µM (inactive) in the assay on MDA-N; 14.8 µM (inactive) in the assay with MOLT-4; 12.9 µM (inactive) in the assay with PC-3; 27.2 µM (inactive) with RPMI-8226. The GI50 is 13.4 µM (inactive) with RXF 393; 16.6 µM (inactive) in the assay on SK-MEL-2; 13.6 µM (inactive) in the assay with SK-MEL-5; > 10 µM (inactive) in the assay on SK-OV-3; 21.1 µM (inactive) in the assay with SW-620; 21.8 µM (inactive) in the assay on TK-10.

(Values after ChEMBL document CHEMBL1201862, “PubChem BioAssay data set” (2004).)
